System: L1CAM transfected PT45-P1 cells
Assay: Caspase-3/-7 assay in L1CAM transfected PT45-P1 cells
Assay type: cell-based, human
Settings: inhibitor 10 μmol/L, 20 μg/mL etoposide 24 hours
Procedure: PT45-P1res cells (a,b) or PT45-P1 cells transfected with L1CAM or an empty control vector (mock) (c,d) were left untreated (w/o) or were either treated with Tapi-0, Tapi-1, GM6001 or L685,458 (each 10 μmol/L) for 24 hours. (a,c) Cellular lysates were subjected to western blotting using either the antibody clone UJ127 from Acris detecting only full-length L1CAM or the pcytL1 antibody detecting also the cytoplasmic part of L1CAM. HSP90 was detected as a control for equal protein load. (b,d) Thirty minutes after treatment with the respective inhibitor, cells were either left untreated or treated with 20 μg/mL etoposide for 24 hours. Then, cells were analysed for caspase-3/-7 activity expressed as n-fold induction of caspase-3/-7 activity of basal. Means±SD from three independent experiments are shown. * indicates p<0.05.
As described elsewhere (Sebens Müerköster et al., 2006), apoptosis was determined by staining with annexinV/propidium iodide (Biocarta, Hamburg, Germany) and subsequent fluorescence flow cytometry (GalaxyArgon Plus; DAKO Cytomation, Hamburg, Germany) using the FLOMAX software, and by the detection of caspase-3/-7 activity using a homogeneous luminescent assay (Promega, Mannheim, Germany). All samples were measured in duplicates.
For L1CAM transfection, PT45-P1 cells were seeded into 6 well plates (2×10^5 cells/well), were grown overnight, followed by transfection with 5 μL/well DIMRIE reagent (Invitrogen) and 0.6 μg/well of the following plasmids: pcDNA3.1 (mock) or pcDNA3.1-L1CAM (L1CAM). Upon transfection for 18 hours, 1 mL medium containing 20% FCS was added and cells were left untreated or were treated as indicated for further 24 hours. For knock down of L1CAM, PT45-P1res cells were seeded into 12 well plates (1×10^5 cells/well), were grown overnight followed by transfection with 12 μL/well RNAiFect reagent (Invitrogen) and 2 μg/well of either Stealth negative control siRNA (Invitrogen) or Stealth L1CAM siRNA (Invitrogen). After overnight transfection, cells were either left untreated or treated as indicated for further 24 hours.

CC(C)C[C@H](CC(=O)NO)C(=O)N[C@@H](Cc1ccc2ccccc2c1)C(=O)N[C@@H](C)C(N)=O [TAPI-0]
apoptosis inducing effect of etoposide (caspase-3/-7): nor affect the apoptosis inducing effect of etoposide

Reference: patent US20080299123A1, “TREATMENT OF CHEMOTHERAPY- OR RADIOTHERAPY-RESISTANT TUMORS” (Deutsches Krebsforschungszentrum Stiftung des offentlichen …, priority 2006, published 2008)
